In PubChem BioAssay AID1963965 (Molecular Pharmacology Branch, DTP, NCI, 2024):

Tested on: 996289-038-R-J1-PDC spheroid viability
Assay: Anticancer human tumor 996289-038-R-J1-PDC patient-derived colon adenocarcinoma cell line growth inhibition [PI3K]
Settings: spheroids with HUVEC and MSC; for viability, T/C: stronger effect = lower value
Method in brief: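 Agents were dosed from a top concentration near clinical Cmax (otherwise 10 microM) in half-log decrements, alone or combined with PI3K inhibitors. The spheroids contain tumor cells plus endothelial (HUVEC) and MSC stroma; viability is measured.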

[1] = curve of first compound, second compound 0.0316 µM
[2] = curve of first compound, second compound 0.1 µM
[3] = curve of first compound, second compound 0.316 µM
[4] = curve of first compound, second compound 1 µM
[5] = second compound 0.0316 µM, first compound 0.0316 µM
[6] = second compound 0.0316 µM, first compound 0.1 µM
[7] = second compound 0.1 µM, first compound 0.0316 µM
[8] = second compound 0.1 µM, first compound 0.1 µM
[9] = second compound 0.316 µM, first compound 0.0316 µM
[10] = second compound 0.316 µM, first compound 0.1 µM
[11] = second compound 1 µM, first compound 0.0316 µM
[12] = second compound 1 µM, first compound 0.1 µM
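Also: spheroids exposed to compounds for seven days before viability read.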
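For viability, T/C in this document: luminescence used as a proxy for viable cell amount; percent viability relative to DMSO vehicle control as 100%.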

## CC1(C)CCC(Nc2ncc(C(F)(F)F)c(-c3c[nH]c4c(P(C)(C)=O)c(C#N)ccc34)n2)CN1 (stereo not drawn) + Cc1nc(NC(=O)N2CCCC2C(N)=O)sc1-c1ccnc(C(C)(C)C(F)(F)F)c1
[1]
  IC50: 6.45 µM
[2]
  IC50: 6.7 µM
[3]
  IC50: 5.83 µM
[4]
  IC50: 4.92 µM
Curve of first compound, second compound 3.16 µM
  IC50: 3.62 µM
Curve of first compound, second compound 10 µM
  IC50: < 0.0316 µM
[5]
  viability, T/C: 103%
[6]
  viability, T/C: 86.8%
Second compound 0.0316 µM, first compound 0.316 µM
  viability, T/C: 75.6%
Second compound 0.0316 µM, first compound 1 µM
  viability, T/C: 90.1%
Second compound 0.0316 µM, first compound 3.16 µM
  viability, T/C: 92.2%
Second compound 0.0316 µM, first compound 10 µM
  viability, T/C: 25.6%
[7]
  viability, T/C: 89.9%
[8]
  viability, T/C: 74.1%
Second compound 0.1 µM, first compound 0.316 µM
  viability, T/C: 88.2%
Second compound 0.1 µM, first compound 1 µM
  viability, T/C: 85%
Second compound 0.1 µM, first compound 3.16 µM
  viability, T/C: 91.3%
Second compound 0.1 µM, first compound 10 µM
  viability, T/C: 30.8%
[9]
  viability, T/C: 75.5%
[10]
  viability, T/C: 78%
Second compound 0.316 µM, first compound 0.316 µM
  viability, T/C: 85.8%
Second compound 0.316 µM, first compound 1 µM
  viability, T/C: 79%
Second compound 0.316 µM, first compound 3.16 µM
  viability, T/C: 80.2%
Second compound 0.316 µM, first compound 10 µM
  viability, T/C: 24%
[11]
  viability, T/C: 75%
[12]
  viability, T/C: 70%
Second compound 1 µM, first compound 0.316 µM
  viability, T/C: 70.8%
Second compound 1 µM, first compound 1 µM
  viability, T/C: 69.7%
Second compound 1 µM, first compound 3.16 µM
  viability, T/C: 68.1%
Second compound 1 µM, first compound 10 µM
  viability, T/C: 21.4%
Second compound 3.16 µM, first compound 0.0316 µM
  viability, T/C: 62.5%
Second compound 3.16 µM, first compound 0.1 µM
  viability, T/C: 57.9%
Second compound 3.16 µM, first compound 0.316 µM
  viability, T/C: 55.9%
Second compound 3.16 µM, first compound 1 µM
  viability, T/C: 58.7%
Second compound 3.16 µM, first compound 3.16 µM
  viability, T/C: 55%
Second compound 3.16 µM, first compound 10 µM
  viability, T/C: 13.1%
Second compound 10 µM, first compound 0.0316 µM
  viability, T/C: 41.9%
Second compound 10 µM, first compound 0.1 µM
  viability, T/C: 46%
Second compound 10 µM, first compound 0.316 µM
  viability, T/C: 41.7%
Second compound 10 µM, first compound 1 µM
  viability, T/C: 38.8%
Second compound 10 µM, first compound 3.16 µM
  viability, T/C: 36.9%
Second compound 10 µM, first compound 10 µM
  viability, T/C: 10.2%

## CC(=O)c1c(C)c2cnc(Nc3ccc(N4CCNCC4)cn3)nc2n(C2CCCC2)c1=O + CC(Nc1ccc2c(c1)OCCn1cc(N3C(=O)OCC3C(F)F)nc1-2)C(N)=O
Curve of first compound, second compound 0.00316 µM
  IC50: > 0.1 µM
Curve of first compound, second compound 0.01 µM
  IC50: > 0.1 µM
[1]
  IC50: > 0.1 µM
[2]
  IC50: > 0.1 µM
[3]
  IC50: > 0.1 µM
[4]
  IC50: 0.0796 µM
Second compound 0.00316 µM, first compound 0.000316 µM
  viability, T/C: 89.9%
Second compound 0.00316 µM, first compound 0.001 µM
  viability, T/C: 106%
Second compound 0.00316 µM, first compound 0.00316 µM
  viability, T/C: 103%
Second compound 0.00316 µM, first compound 0.01 µM
  viability, T/C: 93.9%
Second compound 0.00316 µM, first compound 0.0316 µM
  viability, T/C: 96.5%
Second compound 0.00316 µM, first compound 0.1 µM
  viability, T/C: 93.3%
Second compound 0.01 µM, first compound 0.000316 µM
  viability, T/C: 105%
Second compound 0.01 µM, first compound 0.001 µM
  viability, T/C: 90.5%
Second compound 0.01 µM, first compound 0.00316 µM
  viability, T/C: 101%
Second compound 0.01 µM, first compound 0.01 µM
  viability, T/C: 96.4%
Second compound 0.01 µM, first compound 0.0316 µM
  viability, T/C: 96.7%
Second compound 0.01 µM, first compound 0.1 µM
  viability, T/C: 92%
Second compound 0.0316 µM, first compound 0.000316 µM
  viability, T/C: 101%
Second compound 0.0316 µM, first compound 0.001 µM
  viability, T/C: 85.3%
Second compound 0.0316 µM, first compound 0.00316 µM
  viability, T/C: 95.8%
Second compound 0.0316 µM, first compound 0.01 µM
  viability, T/C: 87.5%
[5]
  viability, T/C: 92.8%
[6]
  viability, T/C: 81.2%
Second compound 0.1 µM, first compound 0.000316 µM
  viability, T/C: 82.2%
Second compound 0.1 µM, first compound 0.001 µM
  viability, T/C: 70%
Second compound 0.1 µM, first compound 0.00316 µM
  viability, T/C: 85.3%
Second compound 0.1 µM, first compound 0.01 µM
  viability, T/C: 92.5%
[7]
  viability, T/C: 87.8%
[8]
  viability, T/C: 76.5%
Second compound 0.316 µM, first compound 0.000316 µM
  viability, T/C: 73%
Second compound 0.316 µM, first compound 0.001 µM
  viability, T/C: 81.6%
Second compound 0.316 µM, first compound 0.00316 µM
  viability, T/C: 63.4%
Second compound 0.316 µM, first compound 0.01 µM
  viability, T/C: 64.8%
[9]
  viability, T/C: 70.9%
[10]
  viability, T/C: 68.8%
Second compound 1 µM, first compound 0.000316 µM
  viability, T/C: 58.7%
Second compound 1 µM, first compound 0.001 µM
  viability, T/C: 72.5%
Second compound 1 µM, first compound 0.00316 µM
  viability, T/C: 58.9%
Second compound 1 µM, first compound 0.01 µM
  viability, T/C: 57.7%
[11]
  viability, T/C: 57.8%
[12]
  viability, T/C: 48.2%

## Cn1cnc2c(F)c(Nc3ccc(Br)cc3Cl)c(C(=O)NOCCO)cc21
Compound 0.00949 µM
  viability, T/C: 89.3% [middle of 4 runs]
Compound 0.03 µM
  viability, T/C: 74.7% [middle of 4 runs]
Compound 0.0949 µM
  viability, T/C: 64% [middle of 4 runs]
Compound 0.3 µM
  viability, T/C: 44.4% [middle of 4 runs]
Compound 0.949 µM
  viability, T/C: 35.1% [middle of 4 runs]
Compound 3 µM
  viability, T/C: 24.5% [middle of 4 runs]
Curve of compound
  IC50: 229 nM [middle of 4 runs]

## CCCS(=O)(=O)Nc1ccc(F)c(C(=O)c2c[nH]c3ncc(-c4ccc(Cl)cc4)cc23)c1F
Compound 0.0316 µM
  viability, T/C: 106% [middle of 4 runs]
Compound 0.1 µM
  viability, T/C: 93.7% [middle of 4 runs]
Compound 0.316 µM
  viability, T/C: 100% [middle of 4 runs]
Compound 1 µM
  viability, T/C: 94.5% [middle of 4 runs]
Compound 3.16 µM
  viability, T/C: 96.8% [middle of 4 runs]
Compound 10 µM
  viability, T/C: 23.3% [middle of 4 runs]
Curve of compound
  IC50: 6.53 µM [middle of 4 runs]
